Source: patent US9572345B2, “Pesticidal composition in the form of aqueous emulsion” (Sumitomo Chemical Company, Limited, priority 2012, dated 2017)

Test: Retention rate of the agriculturally active ingredient after xenon light irradiation (neat film on petri dish)
Type: physicochemical
Details: xenon light (290 nm cutoff), intensity 0.68 W/m^2 at 340 nm, 8 hours, 35° C.; 5 mg air-dried on glass petri dish; HPLC
Protocol: A method for the calculation of a retention rate of the agriculturally active ingredient defined above is more specifically as follows. First, 250 mg of the agriculturally active ingredient is dissolved in 50 ml of a solvent such as acetone, which can sufficiently dissolve the agriculturally active ingredient and also has high volatility, and 1 mL of the solution is added to a glass petri dish having a diameter of 6 cm using a one-mark pipette, spread entirely over the petri dish, and then air-dried at room temperature. The petri dish is covered with a lid made of quartz glass and then set in a weathering tester (manufactured by Q-Lab Corporation under the trade name of Q-SUN Xenon Accelerated Weathering Tester, Model Xe-3) equipped with a borosilicate filter (manufactured by Q-Lab Corporation under the trade name of Daylight-BB Optical Filter) attached thereto. After irradiation with xenon light under the conditions of an intensity at 340 nm of 0.68 W/m^2 and a temperature of 35° C. (35° C. as measured by an insulated black panel thermometer) for 8 hours, the amount of the agriculturally active ingredient remaining on the petri dish is determined by a known determination method such as high-performance liquid chromatography. It is possible to determine a retention rate by calculating as the weight percentage relative to 5 mg of the agriculturally active ingredient used above. […]

retention rate after irradiation with xenon light: 28.1%
SMILES: C=CCSC(=O)n1c(N)c(-c2ccccc2C)c(=O)n1C(C)C [fenpyrazamine]
